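The compound was tested at five concentrations on cells cultured in 96-well plates, with a 48-hour exposure period. At the TGI there is no net growth.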
Tested on: SN12C renal
Test: growth of human tumour cells (NCI), 48 h

Question: With `Cc1c(C(=O)CC(=O)C(=O)Nc2ccccc2C(F)(F)F)[n+](=O)c2ccccc2n1[O-]` as the compound, how does the TGI read?
Answer: 54.4 µM

Question: How did the TGI turn out when `COc1ccccc1N1C(=O)C2c3[nH]c4ccccc4c3C3CCC(C(C)(C)C)CC3C2C1=O` (configuration not stated) was run?
Answer: > 100 µM

Question: With `O=C1C=CC(=O)c2c1ccc1c3ccccc3n(CCCCCCCCCCCCn3c4ccccc4c4ccc5c(c43)C(=O)C=CC5=O)c21` as the compound, how does the TGI read?
Answer: > 100 µM

Question: With `CC1(C)OC(=O)N(c2ccccc2)C12C=Cc1cc([N+](=O)[O-])cc([N+](=O)[O-])c1O2` (configuration not stated) as the compound, how does the TGI read?
Answer: > 100 µM

Question: With `C=CCN1C[C@H](C)N([C@H](c2ccc(C(=O)NC(CC)CC)cc2)c2cccc(OC)c2)C[C@H]1C` as the compound, how does the TGI read?
Answer: > 100 µM

Question: Which TGI does the source give for `CC(C)CCS(=O)(=O)OCCCCOS(=O)(=O)CCC(C)C` here?
Answer: > 100 µM

Question: Which TGI does the source give for `O=C1/C(=C\c2ccccc2)C(NC2CCCCC2)c2ccccc21` (configuration not stated) here?
Answer: 4.37 µM

Tested on: HCC-2998 colon
Test: growth of human tumour cells (NCI), 48 h

Question: Which TGI does the source give for `Cc1c(C(=O)CC(=O)C(=O)Nc2ccccc2C(F)(F)F)[n+](=O)c2ccccc2n1[O-]` here?
Answer: 57.7 µM

Question: With `COc1ccccc1N1C(=O)C2c3[nH]c4ccccc4c3C3CCC(C(C)(C)C)CC3C2C1=O` (configuration not stated) as the compound, how does the TGI read?
Answer: > 100 µM

Question: Which TGI does the source give for `O=C1C=CC(=O)c2c1ccc1c3ccccc3n(CCCCCCCCCCCCn3c4ccccc4c4ccc5c(c43)C(=O)C=CC5=O)c21` here?
Answer: > 46.4 µM

Question: How did the TGI turn out when `CC1(C)OC(=O)N(c2ccccc2)C12C=Cc1cc([N+](=O)[O-])cc([N+](=O)[O-])c1O2` (configuration not stated) was run?
Answer: > 100 µM

Question: How did the TGI turn out when `C=CCN1C[C@H](C)N([C@H](c2ccc(C(=O)NC(CC)CC)cc2)c2cccc(OC)c2)C[C@H]1C` was run?
Answer: > 100 µM

Question: `CC(C)CCS(=O)(=O)OCCCCOS(=O)(=O)CCC(C)C` was tested. Which TGI did it give?
Answer: > 100 µM

Tested on: BT-549 breast
Test: growth of human tumour cells (NCI), 48 h

Question: `O=C1C=CC(=O)c2c1ccc1c3ccccc3n(CCCCCCCCCCCCn3c4ccccc4c4ccc5c(c43)C(=O)C=CC5=O)c21` was tested. Which TGI did it give?
Answer: > 100 µM

Question: Which TGI does the source give for `CC1(C)OC(=O)N(c2ccccc2)C12C=Cc1cc([N+](=O)[O-])cc([N+](=O)[O-])c1O2` (configuration not stated) here?
Answer: > 100 µM

Question: How did the TGI turn out when `C=CCN1C[C@H](C)N([C@H](c2ccc(C(=O)NC(CC)CC)cc2)c2cccc(OC)c2)C[C@H]1C` was run?
Answer: 99.6 µM

Question: Which TGI does the source give for `O=C1/C(=C\c2ccccc2)C(NC2CCCCC2)c2ccccc21` (configuration not stated) here?
Answer: 5.69 µM

Tested on: MCF7 breast
Test: growth of human tumour cells (NCI), 48 h

Question: How did the TGI turn out when `O=C1C=CC(=O)c2c1ccc1c3ccccc3n(CCCCCCCCCCCCn3c4ccccc4c4ccc5c(c43)C(=O)C=CC5=O)c21` was run?
Answer: > 100 µM

Question: For `CC1(C)OC(=O)N(c2ccccc2)C12C=Cc1cc([N+](=O)[O-])cc([N+](=O)[O-])c1O2` (configuration not stated), which TGI is on record?
Answer: > 100 µM

Question: For `C=CCN1C[C@H](C)N([C@H](c2ccc(C(=O)NC(CC)CC)cc2)c2cccc(OC)c2)C[C@H]1C`, which TGI is on record?
Answer: > 100 µM

Question: How did the TGI turn out when `O=C1/C(=C\c2ccccc2)C(NC2CCCCC2)c2ccccc21` (configuration not stated) was run?
Answer: 2.67 µM

Tested on: TK-10 renal
Test: growth of human tumour cells (NCI), 48 h

Question: `Cc1c(C(=O)CC(=O)C(=O)Nc2ccccc2C(F)(F)F)[n+](=O)c2ccccc2n1[O-]` was tested. Which TGI did it give?
Answer: > 100 µM

Question: How did the TGI turn out when `O=C1C=CC(=O)c2c1ccc1c3ccccc3n(CCCCCCCCCCCCn3c4ccccc4c4ccc5c(c43)C(=O)C=CC5=O)c21` was run?
Answer: > 100 µM

Question: Which TGI does the source give for `CC1(C)OC(=O)N(c2ccccc2)C12C=Cc1cc([N+](=O)[O-])cc([N+](=O)[O-])c1O2` (configuration not stated) here?
Answer: > 100 µM

Question: With `C=CCN1C[C@H](C)N([C@H](c2ccc(C(=O)NC(CC)CC)cc2)c2cccc(OC)c2)C[C@H]1C` as the compound, how does the TGI read?
Answer: > 100 µM

Question: Which TGI does the source give for `CC(C)CCS(=O)(=O)OCCCCOS(=O)(=O)CCC(C)C` here?
Answer: > 100 µM

Question: For `O=C1/C(=C\c2ccccc2)C(NC2CCCCC2)c2ccccc21` (configuration not stated), which TGI is on record?
Answer: 2.59 µM

Tested on: 786-0 renal
Test: growth of human tumour cells (NCI), 48 h

Question: How did the TGI turn out when `Cc1c(C(=O)CC(=O)C(=O)Nc2ccccc2C(F)(F)F)[n+](=O)c2ccccc2n1[O-]` was run?
Answer: > 100 µM

Question: For `COc1ccccc1N1C(=O)C2c3[nH]c4ccccc4c3C3CCC(C(C)(C)C)CC3C2C1=O` (configuration not stated), which TGI is on record?
Answer: > 100 µM

Question: For `O=C1C=CC(=O)c2c1ccc1c3ccccc3n(CCCCCCCCCCCCn3c4ccccc4c4ccc5c(c43)C(=O)C=CC5=O)c21`, which TGI is on record?
Answer: > 100 µM

Question: Which TGI does the source give for `CC1(C)OC(=O)N(c2ccccc2)C12C=Cc1cc([N+](=O)[O-])cc([N+](=O)[O-])c1O2` (configuration not stated) here?
Answer: > 100 µM

Question: How did the TGI turn out when `C=CCN1C[C@H](C)N([C@H](c2ccc(C(=O)NC(CC)CC)cc2)c2cccc(OC)c2)C[C@H]1C` was run?
Answer: > 100 µM

Question: `CC(C)CCS(=O)(=O)OCCCCOS(=O)(=O)CCC(C)C` was tested. Which TGI did it give?
Answer: > 100 µM

Question: `O=C1/C(=C\c2ccccc2)C(NC2CCCCC2)c2ccccc21` (configuration not stated) was tested. Which TGI did it give?
Answer: 2.14 µM

Tested on: MDA-N
Test: growth of human tumour cells (NCI), 48 h

Question: For `O=C1C=CC(=O)c2c1ccc1c3ccccc3n(CCCCCCCCCCCCn3c4ccccc4c4ccc5c(c43)C(=O)C=CC5=O)c21`, which TGI is on record?
Answer: > 100 µM

Question: For `CC1(C)OC(=O)N(c2ccccc2)C12C=Cc1cc([N+](=O)[O-])cc([N+](=O)[O-])c1O2` (configuration not stated), which TGI is on record?
Answer: > 100 µM

Question: For `C=CCN1C[C@H](C)N([C@H](c2ccc(C(=O)NC(CC)CC)cc2)c2cccc(OC)c2)C[C@H]1C`, which TGI is on record?
Answer: > 100 µM

Question: `O=C1/C(=C\c2ccccc2)C(NC2CCCCC2)c2ccccc21` (configuration not stated) was tested. Which TGI did it give?
Answer: 3.8 µM

Tested on: UACC-257 melanoma
Test: growth of human tumour cells (NCI), 48 h

Question: For `Cc1c(C(=O)CC(=O)C(=O)Nc2ccccc2C(F)(F)F)[n+](=O)c2ccccc2n1[O-]`, which TGI is on record?
Answer: 36.2 µM

Question: For `COc1ccccc1N1C(=O)C2c3[nH]c4ccccc4c3C3CCC(C(C)(C)C)CC3C2C1=O` (configuration not stated), which TGI is on record?
Answer: > 100 µM

Question: For `O=C1C=CC(=O)c2c1ccc1c3ccccc3n(CCCCCCCCCCCCn3c4ccccc4c4ccc5c(c43)C(=O)C=CC5=O)c21`, which TGI is on record?
Answer: > 100 µM

Question: `CC1(C)OC(=O)N(c2ccccc2)C12C=Cc1cc([N+](=O)[O-])cc([N+](=O)[O-])c1O2` (configuration not stated) was tested. Which TGI did it give?
Answer: > 100 µM

Question: `C=CCN1C[C@H](C)N([C@H](c2ccc(C(=O)NC(CC)CC)cc2)c2cccc(OC)c2)C[C@H]1C` was tested. Which TGI did it give?
Answer: 70.7 µM

Question: For `CC(C)CCS(=O)(=O)OCCCCOS(=O)(=O)CCC(C)C`, which TGI is on record?
Answer: > 100 µM

Question: For `O=C1/C(=C\c2ccccc2)C(NC2CCCCC2)c2ccccc21` (configuration not stated), which TGI is on record?
Answer: 2.69 µM

Tested on: NCI/ADR-RES ovarian
Test: growth of human tumour cells (NCI), 48 h

Question: For `O=C1C=CC(=O)c2c1ccc1c3ccccc3n(CCCCCCCCCCCCn3c4ccccc4c4ccc5c(c43)C(=O)C=CC5=O)c21`, which TGI is on record?
Answer: > 100 µM

Question: `CC1(C)OC(=O)N(c2ccccc2)C12C=Cc1cc([N+](=O)[O-])cc([N+](=O)[O-])c1O2` (configuration not stated) was tested. Which TGI did it give?
Answer: > 100 µM

From PubChem BioAssay (NCI)
